Measured values reported in patent US20260337177A1, “TEAD CORE INHIBITORS FOR CANCER THERAPEUTICS” (University of Florida Research Foundation, Incorporated, priority 2023, published 2026).
Where two headings read alike, the source gives them in different places.

Tests used:
Huh7 cells [1] = experiment: Colony formation (clonogenic) assay, Huh7; assay type: cell-based; details: Homo sapiens, Huh-7, 48 h, read-out: Colony formation, rate of inhibition, Huh7
Protocol: (§1) The ability of compound 22 to inhibit the proliferation of liver cancer cell lines Huh7 and HepG2 was further assessed using a clonogenic assay.
(§2) Huh7 or HepG2 (500 cells/well) were plated into 6 well plates (500 cells per well) and treated with 0 or 5 μM compound 22. Colonies were grown in the absence of soft agar for 2 weeks in a humidified atmosphere of 5% C02 at 37 ° C Crystal violet blue solution (Sigma) was used to stain the colonies for one hour and fixed in methanol followed by counting under a microscope. Triplicate wells were used for each cell line and three independent experiments were performed.

HepG2 cells [2] = experiment: Colony formation (clonogenic) assay, HepG2; assay type: cell-based; details: Homo sapiens, 48 h, read-out: Colony formation, rate of inhibition, HepG2
Protocol: as §1, §2

Huh7 cells [3] = experiment: MTT assay, Huh7 viability; assay type: cell-based, human; details: FIG. 9
Huh7 xenograft = experiment: Huh7 mouse xenograft model, antitumor efficacy; assay type: in vivo, NSG mouse
Protocol: Based on the favorable in vitro potency and low toxicity, the in vivo antitumor efficacy of compound 22 was further evaluated in the NSG mouse (NOD scid gamma mouse) xenograft model from human Huh7 cells. Sorafenib, the first-line treatment for primary hepatocellular carcinoma (HCC) patients, served as the control. Compound 22 was tested as a monotherapy and in combination with Sorafenib.
The animals were administered 10 mg/kg of compound 22 twice a week for four weeks via intraperitoneal (IP) injection.
The mice were administered 50 mg/kg of compound 22 every three day for 24 days via intraperitoneal (IP) injection. Sorafenib was administered orally at a dose of 100 mg/kg following the same schedule.
Tumors were implanted by subcutaneous injection of 5×10^6 Huh7 cells in 100 μL of PBS containing 10% matrix gel (Coming, NY, USA), into the right flank of the mouse. When the tumor volume reached about 85 mm^3, mice were randomized into the vehicle control group (n=5) and a treatment group (n=5). The vehicle group (n=5) received the vehicle only (50% phosal 50 PG, 45% miglyol 810 N and 5% polysorbate 80), while the treatment group (n=5) was given compound 22 (50 mg/kg in 50% phosal 50 PG, 45% miglyol 810 N and 5% polysorbate 80) via IP injection every three days. After 24 days, mice were euthanized. Sorafenib (100 mg/kg, every three day) was dissolved in 75% Ethanol and Cremophor EL (1:1) and administered directly into the animals' stomachs using a gastric probe. Tumor size and body weight were measured every 3 days, and tumor volume was estimated using the formula volume=½×length×width^2. Tumor growth inhibition value (TGI) was calculated as TGI (%) [1−Vt/Vc]×100, where Vc and Vt were […].

CTGF and CYR61 = CTGF and CYR61 expression in xenograft tumor tissue (western blotting); assay type: in vivo; details: vs vehicle groups
Excerpt: To elucidate the mechanism of compound 22-mediated antitumor activity in vivo, the expression level of CTGF and CYR61 in the tumor tissue were examined by western blotting.

CYR61 = CYR61 mRNA expression by RT-qPCR in Huh7 cells; assay type: cell-based, human; details: dose-dependent
Protocol: Huh7 and HepG2 liver cancer cells were seeded at 1×10^6 cells/dish and allowed to adhere overnight. The cells were then treated with indicated doses of compounds in medium for 24 hours. The cells were then harvested, and total RNA was purified using the Aurum total RNA mini kit (Bio-Rad #732-6820) according to the manufacturer's instructions. Complementary DNA was synthesized from 500 ng total RNA template by iScript reverse transcription kit (Bio-Rad #1725037) according to the manufacturer's instructions. Real-time PCR reactions utilized 60 ng cDNA and PrimePCR primers from Bio-Rad (Unique Assay ID: human GAPDH-qHsaCEP0041396, human CTGF-qHsaCEP0024255, human CYR61-qHsaCEP0024230) designed for SYBR Green gene expression analysis (Bio-Rad #1726270). All reactions were carried out in triplicate using Quant Studio 3 PCR system (Applied Biosystems). Relative gene expression level was quantified via ΔΔCt method by using GAPDH as an endogenous reference.

Huh7 cells [4] = experiment: Huh7 cell proliferation assay (CCK8); assay type: cell-based, human; details: for IC50: Homo sapiens
Protocol: CCK8 assay kit was used to determine antiproliferative activity of synthesized compounds against Huh7 cell line. First, Huh7 cells were seeded into 96-well plates at a density of 3000 cells/well and incubated overnight. Cells were then co-incubated with compounds at 8 concentrations for 72 h. Then, the cell proliferation was determined by the CCK8 kit according to the standard protocol. Experiments were performed in triplicate.

HepG2 cells [5] = experiment: Apoptosis by Annexin V/PI flow cytometry, HepG2; assay type: cell-based, human; details: 10 μM; 48 h
Protocol: In order to gain deeper insights into the underlying anticancer mechanism of compound 22, experiments were performed to validate whether the induction of G1 phase cells by compound 22 was linked to apoptosis. To achieve this, the cells treated with compound 22 were subjected to PI and FITC-annexin V staining to detect apoptotic cells. […] The proportions of total apoptosis including the early stage apoptosis and the later stage of apoptosis were 66.8%, and 83.5%, respectively, at concentrations of 5 and 10 μM. This trend was similarly observed in the case of HepG2 cells. […] The impact of compound 22 on inducing cell apoptosis was less pronounced in HepG2 cells compared to Huh7 cells, aligning with the outcomes of the cell cycle analysis, providing further coherence to the observed effects of compound 22 on these cell lines.
Apoptosis was detected using an Annexin V-FITC apoptosis detection kit (Thermo Fisher Scientific) following the manufacturer’ instructions. Briefly, about 50000 cells were suspended in 500 μl of binding buffer. The cells were incubated with 5 μl FITC-conjugated Annexin V for 15 minutes and incubated with 5 μl propidium Iodide staining solution for 15 minutes in darkness at room temperature. Cell apoptosis was then analyzed by flow cytometry using a FACSCalibur flow cytometer (Becton Dickinson, San Jose, CA).

SMILES: O=C(CCl)c1c[nH]c2cc(Cl)c(OCc3cccc(C(F)(F)F)c3)cc12 [Compound 22, 2-chloro-1-(6-chloro-5-((3-(trifluoromethyl)benzyl)oxy)-1H-indol-3-yl)ethan-1-one]
- inhibition at 5 µM (Huh7 cells [1]): 62.5%
- inhibition at 5 µM (HepG2 cells [2]): 59.5%
- Huh7 viability, MTT assay (Huh7 cells [3]): inhibits
- Tumor growth inhibition (TGI) rate (Huh7 xenograft; 10 mg/kg IP twice a week for four weeks): 78%
- Tumor growth inhibition (TGI) rate (Huh7 xenograft; 50 mg/kg IP every three days for 24 days): 75%
- Body weight change (Huh7 xenograft; xenograft mice, FIG. 6C): No significant change
- CTGF expression in tumor tissue (CTGF and CYR61): remarkable decrease
- CYR61 expression in tumor tissue (CTGF and CYR61): remarkable decrease
- CYR61 mRNA expression, Huh7 (CYR61): significantly inhibited
- IC50 (Huh7 cells [4]; Huh-7, 72 h, 3 days, CCK8, mean ± SD of three independent experiments, read-out: Cell proliferation assay IC50, Huh7): 0.9 ± 0.3 µM
- IC50 (Huh7 cells [4]; Huh-7, Table 3 column is in μM, read-out: Huh7 cell growth inhibition / proliferation IC50): 0.9 µM
- Activity ratio, 3-CF3 derivative compound 22 vs para-analogue compound 23 (Huh7 cells [4]; more active than compound 23, Huh7): 16 fold
- Maximum apoptotic rate (early+late apoptotic), HepG2 (HepG2 cells [5]): 69.0%
